According to patent US20250085273A1, “NOVEL RAPID DRUG DISCOVERY FOR SEPSIS AND AGENTS FOR USE AS SEPSIS THERAPY” (priority 2023, published 2025):
Like-named read-outs stand apart in the source and are kept apart here.

Columns and labels:
[1] = test system: 5-dpf zebrafish challenged with K. Pneumoniae LPS (45 μg/mL); experiment: Challenge with K. Pneumoniae LPS (45 μg/mL), 5-dpf zebrafish; type: in vivo, Danio rerio
Protocol: These tests followed the same methods described in the 5-dpf zebrafish confirmatory testing, but K. Pneumoniae LPS (45 μg/mL final in well concentration) was used instead of P. aeruginosa LPS.

[2] = test system: zebrafish (4 dpf pre-treated, LPS exposure at 5-dpf) challenged with P. aeruginosa LPS 60 μg/mL; type: in vivo, Danio rerio; settings: for Pre-Treatment Rescue (n = 16): 24-hour drug pre-treatment; for Pre-Treatment Rescue (n = 16) / No Pre-Treatment Rescue (n = 16): P. aeruginosa LPS 60 μg/mL; for No Pre-Treatment Rescue (n = 16): no 24-hour drug pre-treatment; for 24 hour Tail Edema, No-Drug Pretreatment / 24 Hour Mortality and Tail Edema, Drug Pretreatment / 24 Hour Mortality, Drug Pretreatment / 24 hour Tail Edema, Drug Pretreatment / 24 Hour Mortality and Tail Edema, No-Drug Pretreatment / 24 Hour Mortality, No Drug Pretreatment: number of n = 16 fish; for 24 hour Tail Edema, No-Drug Pretreatment: 10 μM drug with LPS 60 μg/mL; for 24 hour Tail Edema, No-Drug Pretreatment / 24 Hour Mortality and Tail Edema, No-Drug Pretreatment / 24 Hour Mortality, No Drug Pretreatment: no 24-hour pre-treatment; for 24 Hour Mortality and Tail Edema, Drug Pretreatment / 24 Hour Mortality, Drug Pretreatment: 24-hour 10 μM drug pre-treatment; for 24 hour Tail Edema, Drug Pretreatment: 24-hour 10 μM drug pre-treatment before LPS 60 μg/mL
Summary of the method: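 PTU-treated 4 dpf zebrafish embryos received a 24-hour drug pre-treatment at 28.5 °C, alongside an untreated parallel group, before challenge at 5 dpf with P. aeruginosa LPS at 60 μg/mL. Tail edema and mortality were scored at 6 and 24 h post exposure, followed by a neurobehavioral test.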

[3] = biological target: hERG potassium ion channel current (IhERG) (Homo sapiens, UniProt Q12809); settings: cited from earlier work
[4] = test system: 5-dpf zebrafish larvae challenged with P. aeruginosa LPS 60 μg/mL; type: in vivo, Danio rerio; settings: compound 10 μM; for 5 dpf Embryos Percent Rescue (Mort + Tail Edema): 5-dpf larvae
[5] = test system: 3-dpf Zebrafish Embryos Challenged with LPS (P. aeruginosa 60 μg/mL); type: in vivo, Danio rerio; settings: P. aeruginosa LPS 60 μg/mL, compound 10 μM; for Percent Rescue (Mort + Tail Edema): 3-dpf embryos, n=16; for Percent Rescue (Mort + Tail Edema) / rescue of tail edema and mortality (sepsis rescue rate) at 3-dpf: 24 hours; for 3 dpf Embryos Percent Rescue (Mort + Tail Edema): initial 3-dpf screen shown for reference
Summary of the method: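 3-dpf PTU-treated AB zebrafish embryos exposed to 60 μg/mL P. aeruginosa LPS plus 10 μM compound (final) at 28.5 °C, n=16 per compound. Tail edema and mortality scored at 6 and 24 h post exposure; rescue judged against LPS-only controls at 24 h.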

5-HT2B = 5-HT2B (Homo sapiens, UniProt P41595); settings: cited from earlier work
human recombinant 5-HT2A = human recombinant 5-HT2A (Homo sapiens, UniProt P28223); settings: cited from earlier work
human recombinant 5-HT2C = biological target: T1, human recombinant 5-HT2C (Homo sapiens, UniProt P28335); settings: cited from earlier work
T1 sequence (P28335 33-458): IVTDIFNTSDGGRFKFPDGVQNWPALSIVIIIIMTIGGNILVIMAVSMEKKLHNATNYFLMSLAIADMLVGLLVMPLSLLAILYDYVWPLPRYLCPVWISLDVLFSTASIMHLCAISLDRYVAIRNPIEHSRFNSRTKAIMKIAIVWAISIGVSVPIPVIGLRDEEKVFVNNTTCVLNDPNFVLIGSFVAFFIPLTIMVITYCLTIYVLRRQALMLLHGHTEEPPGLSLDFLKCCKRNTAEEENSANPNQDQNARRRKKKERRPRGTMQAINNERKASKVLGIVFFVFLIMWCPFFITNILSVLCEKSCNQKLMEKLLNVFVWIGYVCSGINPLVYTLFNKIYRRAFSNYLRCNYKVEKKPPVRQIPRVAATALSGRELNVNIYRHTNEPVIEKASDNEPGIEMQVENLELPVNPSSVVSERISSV

[6] = test system: larval zebrafish locomotor behavior; type: in vivo
Source text: This assay is a modified version of the larval zebrafish light dark transition assay with an added UV light (wavelength=295 nm) phase to capture any compound specific neurological effects to UV light. (Basnet et al., 2019, Kokel et al., 2013, Peng et al., 2016). The light period assesses deviations from normal locomotor behavior while the rapid transition to dark provides a measure of stress response by identifying any deviations from the normal heightened locomotor activity caused by the transition to dark. The neurobehavioral assay used a custom trial control script created by Noldus Ethovision XT 15, and it was executed in a Noldus DanioVision system. Zebrafish larvae in microplates were allowed to habituate in the DanioVision system for 5 minutes under white light conditions prior to the start of the test. The neurobehavioral assay consisted of three phases: a 3-minute light phase (white light), a 3-minute dark phase (no light) and a 5 second UV phase (UV light only). The Danio Vision system captured larval zebrafish movement throughout this assay at 30 frames per second.
(§1) LC50s for the LPS tests were determined using the Trimmed Spearmen-Karber method (Hamilton et al., 1977). The tail edema and mortality data from the initial and confirmatory drug testing was analyzed using GraphPad Prism 9 using Fisher's Exact Test. Each drug treatment group was compared pairwise with the on-board positive control group on each test plate. Statistical significance was determined with values of p≤0.05. Neurological behavioral testing data was analyzed by Ethovision software that produced an activity analysis profile per frame for each well of the 96 well plates. Any dead embryos were removed from the data set, and the remaining data set was imported into Excel. The offset function in Excel was used to average the percentage of pixel change per 0.1 s for each plate. […] The behavioral data was then statistically analyzed by drug per phase using a 2 tailed t-test to determine statistical significance p≤0.01.

[7] = test system: zebrafish exposed to P. aeruginosa LPS; experiment: Model compound testing in the optimized zebrafish sepsis model (varying LPS dose ranges); type: in vivo, Danio rerio; settings: for complete rescue of exposed fish: 60 μg/mL LPS challenge concentration; for mortality at 24 hours post exposure: 24 hours post LPS exposure
Protocol: Three sources of LPS were evaluated: E. coli 0111:B4, P. aeruginosa Sigma L9143, and K. pneumoniae. E. coli 0111:B4 LPS was selected as the reference LPS used by Philip et al. (2017). P. aeruginosa LPS is commonly associated with infections in hospitals, accounting for an estimated 32,600 cases and resulting in an estimated 2,700 deaths in 2017 (CDC Report 2019). P. aeruginosa infections are also a common cause of sepsis in both patients with severe burns and immunocompromised patients. K. pneumoniae LPS has military relevance related to battlefield injury infections (Kiley et al., 2021). Initial range finding LC50 tests with larval zebrafish were conducted for each LPS strain at both 3-dpf and 5-dpf. […] (E. coli 0111:B4 was also tested at higher concentrations, 400, 800, and 1000 μg/mL due a lack of toxicity within the initial dose range.) Well plates were then covered with parafilm and placed into an incubator at 28.5° C. for 24 hours. After 6 and 24 hours, the plates were removed and scored for mortality, tail edema, and ROS production. The tail edema endpoint evaluates vascular leakage from caudal fin in response to LPS exposure (FIG. 2). ROS production was determined as described by Philip et al. (2017) by adding 2,7-dichloroflurescein diacetate (100 μM) to the wells containing the zebrafish larvae and incubating them in a 100% dark photoperiod incubator at 28.5° C. for one hour. Florescent images of the incubated zebrafish were then captured with a Keyence BZ-X710 fluorescent microscope using 10× objective with a GFP filter and fixed 1/15 second exposure for all imaging. […] Results from the LPS toxicity testing and endpoint screening were used to develop the optimized testing procedure through evaluation in selected model compounds, as described in the next section and in the results.
The optimized zebrafish sepsis model was evaluated against compounds previously shown to have efficacy in previous zebrafish sepsis models: fasudil, hydrocortisone, dexamethasone, and fisetin. Fasudil, an anti-vascular leakage compound (inhibitor of the RhoA/Rho-kinase pathway) was shown by Philip et al. (2017) to rescue zebrafish from LPS-induced mortality, ROS production, and tail fin edema. Fasudil also rescued LPS-induced vascular leakage in murine models of experimental sepsis (Li et al., 2010) and reduced acute lung injury in septic rats through inhibition of the Rho/ROCK signaling pathway (Wang et al., 2018). […] Endpoints evaluated with model compounds included mortality, tail edema, and ROS at 6- and 24-hours post exposure to varying dose ranges of LPS.
as §1, with “Excel.” for “Excel. The offset function in Excel was used to average the percentage of pixel change per 0.1 s for each plate.”

[8] = test system: larval zebrafish exposed to Pseudomonas aeruginosa 60 μg/mL lipopolysaccharide (LPS); experiment: Zebrafish endotoxicity/sepsis model drug screening, statements without larval stage; type: in vivo, Danio rerio
Source text: To identify potential sepsis drug candidates, an optimized larval zebrafish model of endotoxicity/sepsis was used to screen commercial libraries of U.S. Food and Drug Administration (FDA)-approved drugs and other active pharmaceutical ingredients (API) known to affect pathways implicated in the initiation and progression of sepsis in humans (i.e., inflammation, mitochondrial dysfunction, coagulation, and apoptosis). In this model, endotoxicity was induced in 3- and 5-day post fertilization larval zebrafish (characterized by mortality and tail fin edema (vascular leakage)) by immersion exposure to Pseudomonas aeruginosa 60 μg/mL lipopolysaccharide (LPS) for 24 hours, then screened for the rescue potential of 644 selected drugs simultaneously with LPS at 10 μM. After LPS exposure, a neurobehavioral assay (light-dark test) was performed to further evaluate rescue from endotoxicity and to determine possible off-target drug side effects.

Chain of human recombinant 5-HT2A (P28223 whole entry): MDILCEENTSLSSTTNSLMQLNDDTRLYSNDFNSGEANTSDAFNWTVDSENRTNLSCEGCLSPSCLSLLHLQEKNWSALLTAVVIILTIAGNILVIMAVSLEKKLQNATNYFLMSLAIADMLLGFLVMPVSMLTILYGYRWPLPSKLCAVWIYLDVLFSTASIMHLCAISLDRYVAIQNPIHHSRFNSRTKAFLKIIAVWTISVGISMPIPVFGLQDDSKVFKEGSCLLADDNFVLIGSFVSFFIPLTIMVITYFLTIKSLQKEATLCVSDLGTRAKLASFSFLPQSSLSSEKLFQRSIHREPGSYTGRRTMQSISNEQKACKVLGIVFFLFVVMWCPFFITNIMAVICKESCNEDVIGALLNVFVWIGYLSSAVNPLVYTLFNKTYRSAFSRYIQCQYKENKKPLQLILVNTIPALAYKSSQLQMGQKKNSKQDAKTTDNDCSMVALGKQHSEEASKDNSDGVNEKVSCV
Chain of hERG potassium ion channel current (IhERG) (Q12809 whole entry): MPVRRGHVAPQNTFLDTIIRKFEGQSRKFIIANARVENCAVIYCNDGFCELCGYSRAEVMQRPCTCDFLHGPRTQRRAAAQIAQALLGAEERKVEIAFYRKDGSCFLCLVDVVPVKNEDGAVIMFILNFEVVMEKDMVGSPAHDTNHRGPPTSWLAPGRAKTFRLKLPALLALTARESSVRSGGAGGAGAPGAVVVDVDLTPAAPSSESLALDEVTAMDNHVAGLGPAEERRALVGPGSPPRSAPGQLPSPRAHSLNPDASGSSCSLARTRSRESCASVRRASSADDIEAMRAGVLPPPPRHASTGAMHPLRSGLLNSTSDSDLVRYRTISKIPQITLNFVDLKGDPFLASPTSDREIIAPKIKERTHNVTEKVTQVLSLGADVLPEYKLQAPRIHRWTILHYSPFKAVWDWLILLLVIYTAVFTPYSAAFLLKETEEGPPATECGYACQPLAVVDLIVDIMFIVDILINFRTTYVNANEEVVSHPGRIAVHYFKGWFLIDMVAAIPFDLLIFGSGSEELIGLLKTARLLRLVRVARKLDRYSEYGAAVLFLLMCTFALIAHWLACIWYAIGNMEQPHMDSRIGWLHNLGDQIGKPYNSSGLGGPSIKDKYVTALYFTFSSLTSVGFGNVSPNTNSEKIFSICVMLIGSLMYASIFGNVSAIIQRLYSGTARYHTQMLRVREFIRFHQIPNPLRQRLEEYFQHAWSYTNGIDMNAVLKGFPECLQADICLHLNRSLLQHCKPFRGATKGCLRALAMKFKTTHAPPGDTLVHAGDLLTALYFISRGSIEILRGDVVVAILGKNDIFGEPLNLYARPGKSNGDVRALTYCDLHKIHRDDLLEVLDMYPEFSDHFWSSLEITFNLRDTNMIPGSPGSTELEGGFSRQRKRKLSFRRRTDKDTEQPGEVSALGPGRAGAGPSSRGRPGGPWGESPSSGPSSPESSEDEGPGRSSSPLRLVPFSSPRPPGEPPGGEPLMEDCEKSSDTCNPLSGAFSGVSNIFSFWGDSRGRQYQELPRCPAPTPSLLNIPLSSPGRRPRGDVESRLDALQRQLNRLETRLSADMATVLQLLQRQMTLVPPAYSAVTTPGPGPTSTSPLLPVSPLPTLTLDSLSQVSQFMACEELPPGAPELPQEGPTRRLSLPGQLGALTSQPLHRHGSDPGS
Chain of 5-HT2B (P41595 whole entry): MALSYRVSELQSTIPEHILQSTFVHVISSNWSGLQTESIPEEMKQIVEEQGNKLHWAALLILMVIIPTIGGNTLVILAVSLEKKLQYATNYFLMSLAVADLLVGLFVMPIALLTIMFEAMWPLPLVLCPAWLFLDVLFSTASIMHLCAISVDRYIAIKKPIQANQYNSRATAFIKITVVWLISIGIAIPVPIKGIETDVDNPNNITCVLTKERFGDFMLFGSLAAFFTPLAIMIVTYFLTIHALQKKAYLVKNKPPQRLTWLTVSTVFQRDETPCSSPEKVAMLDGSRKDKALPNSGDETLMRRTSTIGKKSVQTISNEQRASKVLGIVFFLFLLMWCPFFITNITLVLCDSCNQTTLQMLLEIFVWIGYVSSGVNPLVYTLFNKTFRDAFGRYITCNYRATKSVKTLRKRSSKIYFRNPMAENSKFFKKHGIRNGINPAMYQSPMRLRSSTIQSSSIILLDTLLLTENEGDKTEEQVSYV

Molecule | rescue of tail edema and mortality [1] [%] | Pre-Treatment Rescue (n = 16) [2] [%] | No Pre-Treatment Rescue (n = 16) [2] [%] | 24 hour Tail Edema, No-Drug Pretreatment [2] [fish] | 24 Hour Mortality and Tail Edema, Drug Pretreatment [2] [fish] | 24 Hour Mortality, Drug Pretreatment [2] [fish] | 24 hour Tail Edema, Drug Pretreatment [2] [fish] | 24 Hour Mortality and Tail Edema, No-Drug Pretreatment [2] [fish] | 24 Hour Mortality, No Drug Pretreatment [2] [fish] | 5 dpf Embryos Percent Rescue (Mort + Tail Edema) [4] [%] | rescue of tail edema and mortality (sepsis rescue rate) at 5-dpf [4] [%] | Percent Rescue (Mort + Tail Edema) [5] [%] | rescue of tail edema and mortality (sepsis rescue rate) at 3-dpf [5] [%] | 3 dpf Embryos Percent Rescue (Mort + Tail Edema) [5] [%] | complete rescue of exposed fish [7] | mortality at 24 hours post exposure [7] | other results
O=C(c1ccc(F)cc1)C1CCN(CCn2c(=O)[nH]c3ccccc3c2=O)CC1 [Compound 88, Ketanserin] | 88 | 100 | 100 | 0 | 0 | 0 | 0 | 0 | 0 | 81 | 81 | 100 | 100 | 100 | – | – | IC50 [3]: 110 nM; rescue of tail edema and mortality (sepsis rescue rate) at 5-dpf ([4]; listed as ketanserin): 100%
CCCCCNC(=N)N/N=C/c1c[nH]c2ccc(OC)cc12 [Compound 400, Tegaserod (maleate)] | 100 | 100 | 88 | 1 | 0 | 0 | 0 | 2 | 1 | 100 | 100 | 100 | 100 | 100 | – | – | pKi 5-HT2B (5-HT2B): 8.4; pKi 5-HT2A (human recombinant 5-HT2A): 7.5; pKi 5-HT2C (human recombinant 5-HT2C): 7.0; light/dark neurobehavioral testing, difference from negative controls ([6]; after LPS exposure, with and without drug pre-treatment): little to no difference from negative controls; Post Test Behavioral Assay ([6]; after pre-treatment test LPS exposure): Normal
O=S(=O)(c1cccc2cnccc12)N1CCCNCC1 [Fasudil] | – | – | – | – | – | – | – | – | – | – | – | – | – | – | Neither compound showed complete rescue | statistically significant (p=0.0233) reduction in mortality | –
O=c1c(O)c(-c2ccc(O)c(O)c2)oc2cc(O)ccc12 [Fisetin] | – | – | – | – | – | – | – | – | – | – | – | – | – | – | Neither compound showed complete rescue | – | –
C[C@]12CCC(=O)C=C1CC[C@@H]1[C@@H]2[C@@H](O)C[C@@]2(C)[C@H]1CC[C@]2(O)C(=O)CO [hydrocortisone] | – | – | – | – | – | – | – | – | – | – | – | – | – | – | – | increased mortality over no treatment | rescue at 6-hour exposure time point ([8]; 6-hour exposure time point): showed rescue early; rescue by 24 hours post exposure ([8]; 24 hours post exposure): failed to show any level of rescue; efficacy (mortality) at 6 hours ([7]; 6 hours post LPS exposure): some efficacy noted
Ferric citrate [Compound 340] | – | – | – | 2 | 15 | 15 | 0 | 15 | 13 | 81 | 81 | 94 | 94 | 94 | – | – | fish with tail edemas ([8]; 6 hours post exposure): 9 of 16 fish; fish with tail edema ([8]; 24 hours): 1 of 16
